In US11076595B2, “1-(n,n-disubstituted carbamoyl) 4-(substituted sulfonyl)triazolin-5-one derivative, 4-(n,n-disubstituted carbamoyl) 1-(substituted sulfonyl)triazolin-5-one derivative, and herbicide containing said derivative as active ingredient” (HOKKO CHEMICAL INDUSTRY CO., LTD., priority 2017, dated 2021):

Key:
Type in all cases: in vivo
[1] = system: Scirpus juncoides; assay: Test Example 12: herbicidal effect test by treatment during growing period in paddy field; conditions: 120 g/10a; treatment seven days after sowing in flooded paddy pot; assessed 14 days after treatment
Method: (§1) This test was performed with two replications per one formulation concentration plot, and 14 days after the formulation treatments, the weed suppression rate (%) was determined according to the following equation (Math. 2). Weed suppression rate (%)=(1−average dry weight (g) of plants in treated plots/average dry weight (g) of plants in untreated plots)×100 [Math. 2]
(§2) A Wagner pot having an area of 1/10000 are was filled with paddy field soil and after adding water, a chemical fertilizer (N:P:K=17:17:17) was mixed, followed by puddling. Thereafter, 30 grains of each of Echinochloa crus-galli, broad-leaved weed (Lindernia pyxidaria, Monochoria vaginalis) and Scirpus juncoides seeds were sown to a depth of 0 to 1 cm. Immediately after the sowing, the pot was flooded, and the depth of water was kept at about 3 cm. The pot was subsequently managed in a glass greenhouse. Seven Days after sowing, an emulsifiable concentrate prepared according to Formulation Example 15 by using the compound shown in Table 10 below was diluted with water, and a predetermined amount of the water-diluted formulation was added dropwise. The application rate of the active ingredient, by conversion, corresponded to 120 g per 10 are. The test was performed with two replications per one formulation concentration plot, and 14 days after the formulation treatments, the weed suppression rate (%) was determined according to the equation (Math. 2).

[2] = system: Lindernia pyxidaria; assay: as above; conditions: 120 g/10a; treatment seven days after sowing in flooded paddy pot; assessed 14 days after treatment
Method: as §1, §2

[3] = system: Echinochloa crus-galli; assay: as above; conditions: 120 g/10a; treatment seven days after sowing in flooded paddy pot; assessed 14 days after treatment
Method: as §1, §2

[4] = system: Monochoria vaginalis; assay: as above; conditions: 120 g/10a; treatment seven days after sowing in flooded paddy pot; assessed 14 days after treatment
Method: as §1, §2

[5] = system: Scirpus juncoides; assay: Test Example 11: herbicidal effect test by soil treatment in paddy field; conditions: 120 g/10a active ingredient, 14 days after treatment
Description: as §2, with “greenhouse. Just” for “greenhouse. Seven Days”, “after that,” for “after sowing,”, “Table 9” for “Table 10”, “are.” for “are. The test was performed with two replications per one formulation concentration plot, and 14 days after the formulation treatments, the weed suppression rate (%) was determined according to the equation (Math. 2).”
as §1

[6] = system: Lindernia pyxidaria; assay: as above; conditions: 120 g/10a active ingredient, 14 days after treatment
Description: as §2, with “greenhouse. Just” for “greenhouse. Seven Days”, “after that,” for “after sowing,”, “Table 9” for “Table 10”, “are.” for “are. The test was performed with two replications per one formulation concentration plot, and 14 days after the formulation treatments, the weed suppression rate (%) was determined according to the equation (Math. 2).”
as §1

[7] = system: Echinochloa crus-galli; assay: as above; conditions: 120 g/10a active ingredient, 14 days after treatment
Description: as §2, with “greenhouse. Just” for “greenhouse. Seven Days”, “after that,” for “after sowing,”, “Table 9” for “Table 10”, “are.” for “are. The test was performed with two replications per one formulation concentration plot, and 14 days after the formulation treatments, the weed suppression rate (%) was determined according to the equation (Math. 2).”
as §1

[8] = system: Monochoria vaginalis; assay: as above; conditions: 120 g/10a active ingredient, 14 days after treatment
Description: as §2, with “greenhouse. Just” for “greenhouse. Seven Days”, “after that,” for “after sowing,”, “Table 9” for “Table 10”, “are.” for “are. The test was performed with two replications per one formulation concentration plot, and 14 days after the formulation treatments, the weed suppression rate (%) was determined according to the equation (Math. 2).”
as §1

Row | Compound | Weed suppression rate (%) Scirpus juncoides [1] | Weed suppression rate (%) Lindemia pyxidaria [2] | Weed suppression rate (%) Echinochloa crus-galli [3] | Weed suppression rate (%) Monochoria vaginalis [4] | Weed suppression rate (%) Scirpus juncoides [5] | Weed suppression rate (%) Lindemia pyxidaria [6] | Weed suppression rate (%) Echinochloa crus-galli [7] | Weed suppression rate (%) Monochoria vaginalis [8]
1 | CC(C)N(C(=O)n1cnn(S(=O)(=O)C2CCCCC2)c1=O)c1ccc(C(F)(F)F)cc1Cl [Compound 11-314] | 90% | 80% | 90% | 80% | 90% | 80% | 90% | 80%
2 | CC(C)N(C(=O)n1cnn(S(=O)(=O)C2CCCCC2)c1=O)c1ccc(C#N)cc1Cl [Compound 11-316] | 90% | 80% | 90% | 80% | 90% | 80% | 90% | 80%
3 | CCN(C(=O)n1cnn(S(=O)(=O)c2ccccc2)c1=O)C1CCCCC1 [Compound 11-353] | 90% | 80% | 90% | 80% | 90% | 80% | 90% | 80%
4 | CC(C)N(C(=O)n1cnn(S(=O)(=O)c2ccccc2)c1=O)c1ccc(Cl)cc1 [Compound 11-361] | 90% | 80% | 90% | 80% | 90% | 80% | 90% | 80%
5 | CC(C)N(C(=O)n1cnn(S(=O)(=O)c2ccccc2F)c1=O)c1ccccc1F [Compound 11-392] | 90% | 80% | 90% | 80% | 90% | 80% | 90% | 80%
6 | CC(C)N(C(=O)n1cnn(S(=O)(=O)c2ccccc2F)c1=O)c1cccc(F)c1F [Compound 11-401] | 100% | 80% | 100% | 100% | 90% | 100% | 100% | 100%
7 | CC(C)N(C(=O)n1cnn(S(=O)(=O)c2ccccc2F)c1=O)c1c(F)cccc1F [Compound 11-404] | 70% | 70% | 100% | 70% | 30% | 30% | 100% | 60%
8 | CC(C)N(C(=O)n1cnn(S(=O)(=O)c2ccccc2F)c1=O)c1ccc(Br)cc1Cl [Compound 11-413] | 70% | 70% | 60% | 70% | 80% | 90% | 80% | 80%
9 | Cc1ccc(N(C(=O)n2cnn(S(=O)(=O)c3ccccc3F)c2=O)C(C)C)c(F)c1 [Compound 11-416] | 90% | 80% | 90% | 80% | 90% | 80% | 90% | 80%
